Measured values from US7659404B2, “Broad spectrum 2-(substituted-amino)-benzothiazole sulfonamide HIV protease inhibitors” (Tibotec Pharmaceuticals Ltd., priority 2001, dated 2010).
Like-named read-outs stand apart in the source and are kept apart here.

Assays:
virus strain F (R13025) = assay: microbe, parasite or virus in culture; type: cell-based, HIV; conditions: for fold resistance (FR), strain F: FR=EC50(mutant strain)/EC50(HIV-1 strain LAI); for EC50: Human immunodeficiency virus 1, MT4, read-out: HIV-AVE-MT4-MTT-R13025-2-002 pEC50, virus strain F (R13025), MT4 cells, MTT (converted); for HIV-AVE-MT4-MTT-R13025-2-002 pEC50: virus strain F (R13025), MT4 cells
Procedure: (§1) HIV- or mock-infected MT4 cells were incubated for five days in the presence of various concentrations of the inhibitor. […] Cell viability is measured by measuring the concentration of MTT, a yellow, water soluble tetrazolium dye that is converted to a purple, water insoluble formazan in the mitochondria of living cells only. Upon solubilization of the resulting formazan crystals with isopropanol, the absorbance of the solution is monitored at 540 nm. The values correlate directly to the number of living cells remaining in the culture at the completion of the five day incubation. The inhibitory activity of the compound was monitored on the virus-infected cells and was expressed as EC50 and EC90. These values represent the amount of the compound required to protect 50% and 90%, respectively, of the cells from the cytopathogenic effect of the virus. The toxicity of the compound was measured on the mock-infected cells and was expressed as CC50, which represents the concentration of compound required to inhibit the growth of the cells by 50%. The selectivity index (SI) (ratio CC50/EC50) is an indication of the selectivity of the anti-HIV activity of the inhibitor.
(§2) Because of the increasing emergence of drug resistant HIV strains, the present compounds were tested for their potency against clinically isolated HIV strains harboring several mutations.
(§3) As a measure of the broad spectrum activity of the present compounds, the fold resistance (FR) defined as FR=EC50(mutant strain)/EC50(HIV-1 strain LAI).

virus strain S (R13080) = assay: microbe, parasite or virus in culture; type: cell-based, HIV; conditions: for fold resistance (FR), strain S: FR=EC50(mutant strain)/EC50(HIV-1 strain LAI); for EC50: Human immunodeficiency virus 1, MT4, read-out: HIV-AVE-MT4-MTT-R13080-2-002 pEC50, virus strain S (R13080), MT4 cells, MTT (converted); for HIV-AVE-MT4-MTT-R13080-2-002 pEC50: virus strain S (R13080), MT4 cells
Procedure: as §1, §2, §3

[1] = system: clinically isolated HIV strain H; type: cell-based; conditions: FR=EC50(mutant strain)/EC50(HIV-1 strain LAI)
Procedure: as §1, §2, §3

[2] = system: clinically isolated HIV strain I; type: cell-based; conditions: FR=EC50(mutant strain)/EC50(HIV-1 strain LAI)
Procedure: as §1, §2, §3

[3] = system: clinically isolated HIV strain J; type: cell-based; conditions: FR=EC50(mutant strain)/EC50(HIV-1 strain LAI)
Procedure: as §1, §2, §3

[4] = system: clinically isolated HIV strain O; type: cell-based; conditions: FR=EC50(mutant strain)/EC50(HIV-1 strain LAI)
Procedure: as §1, §2, §3

[5] = system: clinically isolated HIV strain T; type: cell-based; conditions: FR=EC50(mutant strain)/EC50(HIV-1 strain LAI)
Procedure: as §1, §2, §3

wild type virus (IIIB) = assay: HIV-AVE-MT4-MTT cellular assay, wild type virus (IIIB); type: cell-based; conditions: for EC50: Human immunodeficiency virus 1, IIIB; for HIV-AVE-MT4-MTT-IIIB-2-002 pEC50: wild type virus (IIIB)
Procedure: HIV- or mock-infected MT4 cells were incubated for five days in the presence of various concentrations of the inhibitor. At the end of the incubation period, all HIV-infected cells have been killed by the replicating virus in the control cultures in the absence of any inhibitor. Cell viability is measured by measuring the concentration of MTT, a yellow, water soluble tetrazolium dye that is converted to a purple, water insoluble formazan in the mitochondria of living cells only. Upon solubilization of the resulting formazan crystals with isopropanol, the absorbance of the solution is monitored at 540 nm. The values correlate directly to the number of living cells remaining in the culture at the completion of the five day incubation. The inhibitory activity of the compound was monitored on the virus-infected cells and was expressed as EC50 and EC90. These values represent the amount of the compound required to protect 50% and 90%, respectively, of the cells from the cytopathogenic effect of the virus. The toxicity of the compound was measured on the mock-infected cells and was expressed as CC50, which represents the concentration of compound required to inhibit the growth of the cells by 50%. The selectivity index (SI) (ratio CC50/EC50) is an indication of the selectivity of the anti-HIV activity of the inhibitor.

[6] = MT4, wild type virus (IIIB), MT4 cells, MTT, read-out: HIV-AVE-MT4-MTT-IIIB-2-002 pEC50 (converted)

Compound	EC50 (wild type virus (IIIB); [6])	EC50 (virus strain F (R13025))	EC50 (virus strain S (R13080))	further results
CC(C)CN(CC(O)C(Cc1ccccc1)NC(=O)OC1COC2OCCC12)S(=O)(=O)c1ccc2nc(NC(=O)CN3CCNCC3)sc2c1 (mixture of isomers) [Compound 5]				fold resistance (FR), strain F (virus strain F (R13025)): 0.5; fold resistance (FR), strain S (virus strain S (R13080)): 0.6; fold resistance (FR), strain H [1]: 0.6; fold resistance (FR), strain I [2]: 0.6; fold resistance (FR), strain J [3]: 0.3; fold resistance (FR), strain O [4]: 0.4; fold resistance (FR), strain T [5]: 2.6
COC(=O)CNc1nc2ccc(S(=O)(=O)N(CC(C)C)CC(O)C(Cc3ccccc3)NC(=O)OC3COC4OCCC34)cc2s1 (mixture of isomers) [Compound 6]				fold resistance (FR), strain F (virus strain F (R13025)): 24.0; fold resistance (FR), strain S (virus strain S (R13080)): 30.7; fold resistance (FR), strain H [1]: 7.7; fold resistance (FR), strain I [2]: 5.3; fold resistance (FR), strain J [3]: 5.6; fold resistance (FR), strain O [4]: 4.7; fold resistance (FR), strain T [5]: 104.3
CC(C)CN(C[C@@H](O)[C@H](Cc1ccccc1)NC(=O)O[C@H]1CO[C@H]2OCC[C@H]21)S(=O)(=O)c1ccc2nc(NC(=O)CN3CCNCC3)sc2c1 [Compound 17]				fold resistance (FR), strain F (virus strain F (R13025)): 0.3; fold resistance (FR), strain S (virus strain S (R13080)): 0.6; fold resistance (FR), strain H [1]: 0.8; fold resistance (FR), strain I [2]: 0.7; fold resistance (FR), strain J [3]: 0.2; fold resistance (FR), strain O [4]: 0.3; fold resistance (FR), strain T [5]: 1.0
CC(C)CN(C[C@@H](O)[C@H](Cc1ccccc1)NC(=O)O[C@H]1CO[C@H]2OCC[C@H]21)S(=O)(=O)c1ccc2nc(NCCN(C)C(=O)OC(C)(C)C)sc2c1 [Compound 21]				fold resistance (FR), strain F (virus strain F (R13025)): 16.6; fold resistance (FR), strain S (virus strain S (R13080)): 38.6; fold resistance (FR), strain H [1]: 4.8; fold resistance (FR), strain I [2]: 3.7; fold resistance (FR), strain J [3]: 3.3; fold resistance (FR), strain O [4]: 3.4; fold resistance (FR), strain T [5]: 380.0
CC(C)CN(C[C@@H](O)[C@H](Cc1ccccc1)NC(=O)OCc1cncs1)S(=O)(=O)c1ccc2nc(NC(=O)OC(C)C)sc2c1 [Compound 167]	4.9 nM	30.9 nM	141 nM	
CC(C)CN(C[C@@H](O)[C@H](Cc1ccccc1)NC(=O)OCc1cncs1)S(=O)(=O)c1ccc2nc(NC(=O)c3ccncc3)sc2c1 [Compound 168]	24.5 nM	31.6 nM	135 nM	
CC(=O)Nc1nc2ccc(S(=O)(=O)N(CC(C)C)C[C@@H](O)[C@H](Cc3ccccc3)NC(=O)OCc3cncs3)cc2s1 [Compound 169]	8.51 nM	6.76 nM	35.5 nM	
CCOC(=O)Nc1nc2ccc(S(=O)(=O)N(CC(C)C)C[C@@H](O)[C@H](Cc3ccccc3)NC(=O)OCc3cncs3)cc2s1 [Compound 170]	7.59 nM	17.4 nM	162 nM	
CC(C)COC(=O)Nc1nc2ccc(S(=O)(=O)N(CC(C)C)C[C@@H](O)[C@H](Cc3ccccc3)NC(=O)OCc3cncs3)cc2s1 [Compound 171]	51.3 nM	186 nM	851 nM	
CC(C)CN(C[C@@H](O)[C@H](Cc1ccccc1)NC(=O)OCc1cncs1)S(=O)(=O)c1ccc2nc(NC(=O)c3ccno3)sc2c1 [Compound 172]	42.7 nM	245 nM	813 nM	
CC(C)CN(C[C@@H](O)[C@H](Cc1ccccc1)NC(=O)OCc1cncs1)S(=O)(=O)c1ccc2nc(N(C)C(=O)CN3CCN(C)CC3)sc2c1 [Compound 173]				HIV-AVE-MT4-MTT-IIIB-2-002 pEC50 (wild type virus (IIIB); MT4 cells, MTT): 8.25; HIV-AVE-MT4-MTT-R13025-2-002 pEC50 (virus strain F (R13025)): 7.52; HIV-AVE-MT4-MTT-R13080-2-002 pEC50 (virus strain S (R13080)): 6.81
CC(C)CN(C[C@@H](O)[C@H](Cc1ccccc1)NC(=O)OCc1cncs1)S(=O)(=O)c1ccc2nc(N(C)C(=O)CN3CCOCC3)sc2c1 [Compound 174]				HIV-AVE-MT4-MTT-IIIB-2-002 pEC50 (wild type virus (IIIB); MT4 cells, MTT): 8.04; HIV-AVE-MT4-MTT-R13025-2-002 pEC50 (virus strain F (R13025)): 6.88; HIV-AVE-MT4-MTT-R13080-2-002 pEC50 (virus strain S (R13080)): 6.18
CC(C)CN(C[C@@H](O)[C@H](Cc1ccccc1)NC(=O)OCc1cncs1)S(=O)(=O)c1ccc2nc(N(C)C(=O)CN(C)CCCN3CCCC3)sc2c1 [Compound 175]				HIV-AVE-MT4-MTT-IIIB-2-002 pEC50 (wild type virus (IIIB); MT4 cells, MTT): 7.3; HIV-AVE-MT4-MTT-R13025-2-002 pEC50 (virus strain F (R13025)): 6.03; HIV-AVE-MT4-MTT-R13080-2-002 pEC50 (virus strain S (R13080)): 5.5
CC(C)CN(C[C@@H](O)[C@H](Cc1ccccc1)NC(=O)OCc1cncs1)S(=O)(=O)c1ccc2nc(N(C)C(=O)CN(C)C)sc2c1 [Compound 176]				HIV-AVE-MT4-MTT-IIIB-2-002 pEC50 (wild type virus (IIIB); MT4 cells, MTT): 8.39; HIV-AVE-MT4-MTT-R13025-2-002 pEC50 (virus strain F (R13025)): 7.2; HIV-AVE-MT4-MTT-R13080-2-002 pEC50 (virus strain S (R13080)): 6.65
CC(C)CN(C[C@@H](O)[C@H](Cc1ccccc1)NC(=O)O[C@H]1CO[C@H]2OCC[C@H]21)S(=O)(=O)c1ccc2nc(NC(=O)c3cncs3)sc2c1 [Compound 177]	37.2 nM	7.59 nM	49 nM	
CC(C)CN(C[C@@H](O)[C@H](Cc1ccccc1)NC(=O)O[C@H]1CO[C@H]2OCC[C@H]21)S(=O)(=O)c1ccc2nc(N(CCN3CCCC3)C(=O)OC3CO[C@@H]4OCO[C@H]34)sc2c1 (stereo partly shown) [Compound 178]	17.4 nM	10.7 nM	33.9 nM	
CC(C)CN(C[C@@H](O)[C@H](Cc1ccccc1)NC(=O)OCc1cncs1)S(=O)(=O)c1ccc2nc(NC(=O)c3ccc[nH]3)sc2c1 [Compound 179]	8.91 nM	57.5 nM	47.9 nM	
CC(C)CN(C[C@@H](O)[C@H](Cc1ccccc1)NC(=O)OCc1cncs1)S(=O)(=O)c1ccc2nc(N(C)C(=O)c3ccc[nH]3)sc2c1 [Compound 180]	155 nM	891 nM	10000 nM	
CC(C)CN(C[C@@H](O)[C@H](Cc1ccccc1)NC(=O)OCc1cncs1)S(=O)(=O)c1ccc2nc(N(C)C(=O)c3cc[nH]c3)sc2c1 [Compound 181]	33.1 nM	525 nM	1820 nM	
CC(C)CN(C[C@@H](C)[C@H](Cc1ccccc1)NC(=O)OCc1cncs1)S(=O)(=O)c1ccc2nc(N(C)C(=O)c3ccncc3)sc2c1 [Compound 182]	4.79 nM	36.3 nM	170 nM	
CC(C)CN(C[C@@H](O)[C@H](Cc1ccccc1)NC(=O)OCc1cncs1)S(=O)(=O)c1ccc2nc(NC(=O)C3CCCN(C)C3)sc2c1 (stereo partly shown) [Compound 183]	3.55 nM	1.7 nM	7.08 nM	
CC(C)CN(C[C@@H](O)[C@H](Cc1ccccc1)NC(=O)O[C@H]1CO[C@H]2OCC[C@H]21)S(=O)(=O)c1ccc2nc(NCCN3CCCC3)sc2c1 [Compound 184]		4.47 nM	26.9 nM	EC50 (wild type virus (IIIB); MT4, read-out: HIV-AVE-MT4-MTT-IIIB-2-002 pEC50 (converted)): 17.4 nM
CC(C)CN(C[C@@H](O)[C@H](Cc1ccccc1)NC(=O)O[C@H]1CO[C@H]2OCC[C@H]21)S(=O)(=O)c1ccc2nc(NCCN)sc2c1 [Compound 185]	45.7 nM	33.1 nM	34.7 nM	
CCN1CCCC1CNc1nc2ccc(S(=O)(=O)N(CC(C)C)C[C@@H](O)[C@H](Cc3ccccc3)NC(=O)O[C@H]3CO[C@H]4OCC[C@H]43)cc2s1 (stereo partly shown) [Compound 186]	6.17 nM	6.61 nM	28.8 nM	
CC(C)CN(C[C@@H](O)[C@H](Cc1ccccc1)NC(=O)C(NC(=O)CNCc1cccc(F)c1)C(C)(C)C)S(=O)(=O)c1ccc2nc(NCCCN(C)C)sc2c1 (stereo partly shown) [Compound 188]	200 nM	93.3 nM	132 nM	
CC(C)CN(C[C@@H](O)[C@H](Cc1ccccc1)NC(=O)C(NC(=O)CNCc1cccc(F)c1)C(C)(C)C)S(=O)(=O)c1ccc2nc(NCCN3CCCC3)sc2c1 (stereo partly shown) [Compound 189]	44.7 nM	102 nM	138 nM	
